Laboratory results from patent US20040019430A1, “Methods and systems for analyzing complex biological systems” (priority 2001, published 2004).

How the values were obtained:
[1] = system: Saccharomyces cerevisiae wild type strain BY4743; experiment: AF1 metabolite analysis (GC-MS, LC-MS) of yeast cells treated with antifungal drugs; type: cell-based; design: Fold Change: scale not given here; details: for # Compounds perturbed by treatment: yeast, 2x MIC, two hours
[2] = system: Saccharomyces cerevisiae wild type strain BY4743; experiment: AF1 combined gene expression and metabolite data mapped to KEGG reactions and pathways; type: cell-based; details: yeast AF1
Excerpt: In AF1, two different technologies were utilized: gene expression analysis (for examination of mRNA expression) and metabolite analysis. […] As noted previously, existing metabolic databases may be helpful in practicing the methods and systems of the present invention, but many databases include limitations that make their use in data analysis and pathway mapping less than straightforward. […] This caveat to KEGG makes it difficult to pinpoint the correct pathway when attempting to link a gene to a specific pathway. […] The pathway score indicates how meaningful the mapping is, or how likely it is to be correctly indicative of the pathway involved in the perturbation under examination. The method provides a pathway score based on perturbation levels of genes and/or compounds and the information content of each gene and/or compound in the pathway, i.e., a pathway score indicates the extent to which other pathways are mapped to a gene/compound. For example, imagine that two genes are perturbed in a particular experiment. One gene maps to only one pathway, giving a high degree of probability that the perturbed pathway is the one identified in the mapping. The second gene maps to three pathways. In the later example, there is only one-third the probability that the pathway identified in the mapping is the one perturbed. The present invention provides a method for calculating the pathway scores, so that more weight is given to a score of a gene or compound that maps to only one pathway than to a score of a gene or compound that maps to multiple pathways. […] Where n=the total number of genes in the pathway; ipath—count=the number of pathways containing a gene; and j=the number of genes in the pathway that are perturbed. Another factor to be considered when weighting a pathway score is the degree of perturbation. Degree of perturbation can be calculated, for example, based on a number of standard deviations from a norm, and included in an equation such as the one shown above, so that not only the number of pathways is taken into account, but also accounts for the amount of gene transcript or compound present as compared to a control. Compounds were also linked to pathways using the KEGG database. KEGG links 676 compounds measured in AF1 to a total of 92 pathways. Of the 676 compounds under consideration, 77 were detected in the AF1 samples. […] The multiple mapping feature of KEGG makes it difficult to pinpoint the correct pathway when trying to link a compound to a specific pathway. […] A pathway score calculation is applied to the compounds to account for both information content (number of pathways a compound maps to) and perturbation level. The data were then combined to determine the number of reactions showing an enzyme and at least one compound perturbed, and to determine the number of pathways having at least one enzyme and one perturbed compound perturbed. The results of the analysis are represented in Tables 16 and 17, and were difficult to interpret, illustrating that the ability to draw conclusions from compound mapping to pathways is limited when absent additional data.

SMILES: C[C@@H]1[C@H](O)[C@@H](C)/C=C/C=C/C=C/C=C/C=C/C=C/C=C/[C@H](O[C@@H]2O[C@H](C)[C@@H](O)[C@H](N)[C@@H]2O)C[C@@H]2O[C@](O)(C[C@@H](O)C[C@@H](O)[C@H](O)CC[C@@H](O)C[C@@H](O)CC(=O)O[C@H]1C)C[C@H](O)[C@H]2C(=O)O [Amphoteracin B]
- # Compounds perturbed by treatment ([1]; P < 0.05): 16
- # Compounds perturbed by treatment ([1]; P < 0.1): 21
- Fold Change ([1]; metabolite 3-indolylacetonitri, platform nLC): −0.9998
- Fold Change ([1]; metabolite 4-aminobenzoic acid, platform pLC): 0
- Fold Change ([1]; metabolite 4-methylcatechol, platform nLC): 0
- Fold Change ([1]; metabolite 4-methylcatechol, platform pLC): 0
- Fold Change ([1]; metabolite 4ambutyrate/dimglyc, platform pLC): 0.01279
- Fold Change ([1]; metabolite 4aminobutyrate/dimg, platform nLC): −0.1983
- Fold Change ([1]; metabolite DL-aminoadipic acid, platform pLC): 0.4703
- Fold Change ([1]; metabolite DLaminoadipic acid, platform nLC): 1.411
- Fold Change ([1]; metabolite NacetylD-glucosamine, platform nLC): 0
- Fold Change ([1]; metabolite NacetylD-glucosamine, platform pLC): 0
- Fold Change ([1]; metabolite NacetylL-glutamate, platform nLC): −0.1078
- Fold Change ([1]; metabolite NacetylL-glutamate, platform pLC): 0
- Fold Change ([1]; metabolite NacetylL-ornithine, platform nLC): 0
- Fold Change ([1]; metabolite NacetylL-ornithine, platform pLC): 1.319
- Fold Change ([1]; metabolite decanoic acid, platform nLC): −0.08716
- Fold Change ([1]; metabolite desmosterol, platform GC): 0
- Fold Change ([1]; metabolite diaminopimelic acid, platform nLC): 0
- Fold Change ([1]; metabolite diaminopimelic acid, platform pLC): 0
- Fold Change ([1]; metabolite dihydrofolic acid, platform nLC): 0
- Fold Change ([1]; metabolite dihydrofolic acid, platform pLC): 0
- Fold Change ([1]; metabolite dipicolinic acid, platform pLC): 0
- Fold Change ([1]; metabolite disaccaride1, platform GC): −1
- Fold Change ([1]; metabolite disaccaride2, platform GC): −0.9977
- Fold Change ([1]; metabolite disaccaride3, platform GC): −0.9977
- Fold Change ([1]; metabolite ergosterol, platform GC): 2.303
- Fold Change ([1]; metabolite estrone, platform nLC): 0
- Fold Change ([1]; metabolite farnesol, platform nLC): 0
- Fold Change ([1]; metabolite folic acid, platform nLC): 0
- Fold Change ([1]; metabolite folic acid, platform pLC): 0
- Fold Change ([1]; metabolite fucosterol, platform GC): −0.6553
- Fold Change ([1]; metabolite fumaric/3m2oxobutan, platform nLC): 0.4423
- Fold Change ([1]; metabolite gallic acid, platform nLC): 0.1622
- Fold Change ([1]; metabolite gibberellic, platform nLC): 0
- Fold Change ([1]; metabolite glucosamine-6PO4, platform nLC): −0.9951
- Fold Change ([1]; metabolite glucosamine-6PO4, platform pLC): 0
- Fold Change ([1]; metabolite glucosamine, platform pLC): 0
- Fold Change ([1]; metabolite glutamate, platform pLC): 0.4341
- Fold Change ([1]; metabolite glutamic/acetylseri, platform nLC): 0.1414
- Fold Change ([1]; metabolite glutamine/lysine, platform nLC): 0.07919
- Fold Change ([1]; metabolite glutamine/lysine, platform pLC): 0.3981
- Fold Change ([1]; metabolite glutamine, platform GC): −0.9116
- Fold Change ([1]; metabolite glutathione, platform pLC): −0.03348
- Fold Change ([1]; metabolite glycanopyrose, platform GC): −0.958
- Fold Change ([1]; metabolite glycerol, platform GC): −0.815
- Fold Change ([1]; metabolite glycine, platform GC): 0.8807
- Fold Change ([1]; metabolite guanine, platform nLC): 0
- Fold Change ([1]; metabolite guanosine, platform nLC): 1.131
- Fold Change ([1]; metabolite guanosine, platform pLC): 0.7598
- Fold Change ([1]; metabolite hexadecanoic acid, platform GC): −0.2427
- Fold Change ([1]; metabolite histidine, platform nLC): 0
- Fold Change ([1]; metabolite histidine, platform pLC): 0
- Fold Change ([1]; metabolite homogentisic/uric, platform nLC): 0
- Fold Change ([1]; metabolite hydrocortisone, platform nLC): 0
- Fold Change ([1]; metabolite hydrocortisone, platform pLC): 0
- Fold Change ([1]; metabolite hypoxanthine, platform nLC): 0.1655
- Fold Change ([1]; metabolite hypoxanthine, platform pLC): 0.2057
- Fold Change ([1]; metabolite indole3-pyruvic acid, platform nLC): 0
- Fold Change ([1]; metabolite inostol/glucos/sorb, platform nLC): −0.5905
- Fold Change ([1]; metabolite iso citric acid, platform GC): −0.6183
- Fold Change ([1]; metabolite isocitric/citric/qu, platform nLC): 2.549
- Fold Change ([1]; metabolite isoleucine, platform GC): −0.9533
- Fold Change ([1]; metabolite itaconic acid dimes, platform pLC): 0
- Fold Change ([1]; metabolite jasmonic acid, platform nLC): 0
- Fold Change ([1]; metabolite kinetin, platform nLC): 0
- Fold Change ([1]; metabolite kinetin, platform pLC): 0
- Fold Change ([1]; metabolite lactic acid, platform nLC): −0.02583
- Fold Change ([1]; metabolite lanosterol, platform GC): −1
- Fold Change ([1]; metabolite lauric acid, platform nLC): 0.1225
- Fold Change ([1]; metabolite leucine/isoleucine/, platform nLC): 0.1319
- Fold Change ([1]; metabolite leucine/isoleucine/, platform pLC): 0.2746
- Fold Change ([1]; metabolite leucine, platform GC): −0.9443
- Fold Change ([1]; metabolite luteolin, platform nLC): 0
- Fold Change ([1]; metabolite luteolin, platform pLC): 0
- Fold Change ([1]; metabolite lysine, platform GC): −0.3925
- Fold Change ([1]; metabolite malic acid, platform GC): −0.963
- Fold Change ([1]; metabolite malic acid, platform nLC): 0.6212
- Fold Change ([1]; metabolite malonic acid, platform nLC): 0
- Fold Change ([1]; metabolite mannitol, platform pLC): 0.4543
- Fold Change ([1]; metabolite menthol*, platform nLC): −0.07013
- Fold Change ([1]; metabolite methionine, platform nLC): 0
- Fold Change ([1]; metabolite methionine, platform pLC): 0.3299
- Fold Change ([1]; metabolite mevalonic acid lactone, platform GC): −0.1276
- Fold Change ([1]; metabolite mevalonic lactone, platform pLC): −0.4606
- Fold Change ([1]; metabolite niacinamide, platform pLC): 0
- Fold Change ([1]; metabolite nicotinic acid, platform nLC): 0.3131
- Fold Change ([1]; metabolite nicotinic acid, platform pLC): −0.9989
- Fold Change ([1]; metabolite nopaline, platform nLC): 0.3342
- Fold Change ([1]; metabolite nopaline, platform pLC): 0
- Fold Change ([1]; metabolite octadecanoic acid, platform GC): 0.21
- Fold Change ([1]; metabolite oleic acid, platform GC): −0.4593
- Fold Change ([1]; metabolite oleic acid, platform nLC): 0.689
- Fold Change ([1]; metabolite ornithine2, platform GC): −1
- Fold Change ([1]; metabolite ornithine3, platform GC): −0.9853
- Fold Change ([1]; metabolite ornithine, platform nLC): 2.534
- Fold Change ([1]; metabolite ornithine, platform pLC): 0.5049
- Fold Change ([1]; metabolite orotic acid, platform nLC): 8380
- Fold Change ([1]; metabolite palmiteliadic acid, platform GC): 0.515
- Fold Change ([1]; metabolite palmitic acid, platform nLC): 0.3979
- Fold Change ([1]; metabolite phenylalanine, platform GC): −0.9797
- Fold Change ([1]; metabolite phenylalanine, platform nLC): −0.1906
- # Reactions (title: Number Of Pathways Having at Least One Enzyme and One Compound Perturbed) [2]: 37
- # Reactions having an enzyme and at least one compound perturbed [2]: 54
